One experiment has as its target T1, c-MET (Homo sapiens, UniProt P08581).
T1 construct: The recombinant DNA His-Tev-MET (956-1390) in pFastBac(Invitrogen); His (N, cleaved yes); Tev (TEV protease site) (N, cleaved yes); made in house; host or cells: SF21 insect cells (baculovirus, pFastBac)
Nature of the experiment: Test A: HTRF Met test in 96-well format. The experiment is classed as biochemical. In a few lines: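 The kinase was the Sf21-expressed MET cytoplasmic domain (956–1390), His tag removed, used at 5 nM with compound (0.17 nM–10 µM, 3% DMSO) in 10 mM MOPS pH 7.4. Poly-GAT 1 µg/ml, 10 µM ATP and 5 mM MgCl2 reacted 10 min at RT. After an EDTA stop, phosphotyrosine was detected by HTRF (665/620 ratio).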
In general terms: TR-FRET usually uses a lanthanide donor and a delayed reading to cut background.

In the next experiment the test system is MKN45 cells. Nature of the experiment: Test D: cellular proliferation by 14C-thymidine pulse, MKN45 cells. The conditions noted are these: cell line not stated (HCT116 or MKN45). In kind it is cell-based. A digest of the protocol:
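MKN45 cells (7500/well, RPMI + 10% foetal calf serum) treated with 10 concentrations, 10000 to 0.3 nM in 3-fold steps, duplicate. 14C-thymidine (0.1 μCi/well) added at 72 h; incorporation counted after 24 h pulse, 96 h total treatment.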

A further experiment has as its target RON (Homo sapiens, UniProt Q04912). Nature of the experiment: Test B: HTRF RON test in 96-well format. In kind it is biochemical. In a few lines:
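RON 5 nM pre-incubated 30 min at RT with compound (0.17 nM–10 μM final, 3% DMSO) in MOPS 10 mM pH 7, DTT, Tween 20. Reaction with biotinylated poly-(GAT) 1 μg/ml, ATP 10 μM, MgCl2 5 mM, 30 min RT. Eu-anti-pTyr/streptavidin-XL665 HTRF, 665/620 ratio gives % inhibition, IC50.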

Where [1] appears, read: Homo sapiens, MKN-45, cellular proliferation by 14C-thymidine pulse.

As a reminder, the IC50 is the concentration at which inhibition is half-maximal. Low readings indicate inhibition by little substance, high ones a need for much substance.

T1 sequence (P08581 956-1390): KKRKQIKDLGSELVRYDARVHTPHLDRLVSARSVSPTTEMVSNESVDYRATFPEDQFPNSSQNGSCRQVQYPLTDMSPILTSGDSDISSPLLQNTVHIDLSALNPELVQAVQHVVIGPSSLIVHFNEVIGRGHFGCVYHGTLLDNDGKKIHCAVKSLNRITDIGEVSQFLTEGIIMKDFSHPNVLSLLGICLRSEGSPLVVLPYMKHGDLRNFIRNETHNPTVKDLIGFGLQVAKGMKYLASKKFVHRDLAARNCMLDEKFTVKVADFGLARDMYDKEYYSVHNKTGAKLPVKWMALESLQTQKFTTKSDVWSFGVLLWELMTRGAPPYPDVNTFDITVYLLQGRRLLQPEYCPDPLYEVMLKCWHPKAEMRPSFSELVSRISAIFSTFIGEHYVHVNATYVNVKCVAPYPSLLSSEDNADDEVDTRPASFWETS
Sequence of RON (Q04912 25-1400): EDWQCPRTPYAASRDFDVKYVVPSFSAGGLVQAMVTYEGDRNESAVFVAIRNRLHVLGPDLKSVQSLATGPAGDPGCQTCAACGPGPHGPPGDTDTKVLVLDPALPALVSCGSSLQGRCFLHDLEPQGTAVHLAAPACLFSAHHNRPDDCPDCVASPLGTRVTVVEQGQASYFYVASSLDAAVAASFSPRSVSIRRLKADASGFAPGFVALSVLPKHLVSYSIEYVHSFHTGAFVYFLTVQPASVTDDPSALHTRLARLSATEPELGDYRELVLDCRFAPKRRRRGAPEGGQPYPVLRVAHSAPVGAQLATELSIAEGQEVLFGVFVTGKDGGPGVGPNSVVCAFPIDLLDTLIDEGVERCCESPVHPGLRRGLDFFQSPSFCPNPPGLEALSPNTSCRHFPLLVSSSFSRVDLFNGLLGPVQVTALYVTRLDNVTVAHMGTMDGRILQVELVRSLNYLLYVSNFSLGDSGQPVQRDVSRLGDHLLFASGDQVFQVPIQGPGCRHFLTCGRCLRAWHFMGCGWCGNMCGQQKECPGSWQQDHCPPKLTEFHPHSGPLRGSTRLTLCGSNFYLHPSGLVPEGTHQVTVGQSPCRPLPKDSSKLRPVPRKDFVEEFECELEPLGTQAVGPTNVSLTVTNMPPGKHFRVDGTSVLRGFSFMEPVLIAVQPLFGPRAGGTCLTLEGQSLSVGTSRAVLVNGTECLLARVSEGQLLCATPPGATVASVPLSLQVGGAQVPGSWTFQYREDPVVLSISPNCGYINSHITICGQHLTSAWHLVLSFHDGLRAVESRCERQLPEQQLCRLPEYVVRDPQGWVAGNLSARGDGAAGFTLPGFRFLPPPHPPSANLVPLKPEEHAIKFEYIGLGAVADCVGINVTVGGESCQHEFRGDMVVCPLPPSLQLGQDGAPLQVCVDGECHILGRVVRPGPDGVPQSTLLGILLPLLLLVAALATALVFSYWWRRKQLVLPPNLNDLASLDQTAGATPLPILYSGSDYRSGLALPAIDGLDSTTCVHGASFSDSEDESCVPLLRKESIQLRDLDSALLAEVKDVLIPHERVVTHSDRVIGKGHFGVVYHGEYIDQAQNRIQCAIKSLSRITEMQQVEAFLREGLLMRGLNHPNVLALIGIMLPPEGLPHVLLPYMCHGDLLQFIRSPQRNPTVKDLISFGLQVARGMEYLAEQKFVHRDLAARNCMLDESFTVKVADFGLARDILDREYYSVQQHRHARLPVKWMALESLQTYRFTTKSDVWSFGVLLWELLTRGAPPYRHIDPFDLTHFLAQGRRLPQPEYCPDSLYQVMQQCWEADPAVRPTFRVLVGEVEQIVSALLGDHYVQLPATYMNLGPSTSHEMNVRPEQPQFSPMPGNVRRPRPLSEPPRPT

In the case of `CC(Oc1cc2sc(NC(=O)NCCN3CCN(C)CC3)nc2cc1F)c1c(F)ccc(Cl)c1Cl` (stereo not drawn) [Example 115, 1-{6-[1-(2,3-dichloro-6-fluorophenyl)ethoxy]-5-fluoro-1,3-benzothiazol-2-yl}-3-[2-(4-methylpiperazin-1-yl)ethyl]urea], the IC50 against c-MET is less than 100 nM; in the experiment on MKN45 cells (setting [1]), less than 500 nM; against RON, less than 500 nM.
In the case of `CC(Oc1cc2sc(NC(=O)NCCN3CCCC3)nc2cc1F)c1c(F)ccc(Cl)c1Cl` (stereo not drawn) [Example 118, 1-{6-[1-(2,3-dichloro-6-fluorophenyl)ethoxy]-5-fluoro-1,3-benzothiazol-2-yl}-3-[2-(pyrrolidin-1-yl)ethyl]urea], the values for the half-maximal inhibitory concentration (IC50) on c-MET, in the experiment with MKN45 cells (setting [1]) and against RON were less than 100 nM, 500 to 10000 nM and less than 500 nM, respectively.
Turning to `CC(Oc1ccc2nc(NC(=O)NCCN3CCCC3)sc2c1)c1c(F)ccc(Cl)c1Cl` (stereo not drawn) [Example 120, 1-{6-[1-(2,3-dichloro-6-fluorophenyl)ethoxy]-1,3-benzothiazol-2-yl}-3-[2-(pyrrolidin-1-yl)ethyl]urea], the values for the IC50 on c-MET, in the experiment with MKN45 cells (setting [1]) and against RON were less than 100 nM, less than 500 nM and less than 500 nM, respectively.
Consider `Cc1ccc(F)c(C(C)Oc2ccc3nc(NC(=O)NCCN4CCOCC4)sc3c2)c1F` (stereo not drawn) [Example 123, 1-{6-[1-(2,6-difluoro-3-methylphenyl)ethoxy]-1,3-benzothiazol-2-yl}-3-[2-(morpholin-4-yl)ethyl]urea], for which the IC50 was less than 100 nM against c-MET, 500 to 10000 nM in the experiment on MKN45 cells (setting [1]) and 500 to 10000 nM on RON.
Take `CC(Oc1ccc2nc(NC(=O)NCCN3CCOCC3)sc2c1)c1c(Cl)ccc(Cl)c1Cl` (stereo not drawn) [Example 124, 1-[2-(morpholin-4-yl)ethyl]-3-{6-[1-(2,3,6-trichlorophenyl)ethoxy]-1,3-benzothiazol-2-yl}urea]: the IC50 is less than 100 nM at c-MET, 500 to 10000 nM with MKN45 cells (setting [1]) and 500 to 10000 nM against RON.
Regarding `CC(Oc1ccc2nc(NC(=O)NCCN3CCCC3)sc2c1)c1c(Cl)ccc(Cl)c1Cl` (stereo not drawn) [Example 125, 1-[2-(pyrrolidin-1-yl)ethyl]-3-{6-[1-(2,3,6-trichlorophenyl)ethoxy]-1,3-benzothiazol-2-yl}urea], the IC50 at c-MET was less than 100 nM; in the experiment with MKN45 cells (setting [1]), 500 to 10000 nM; against RON it was 500 to 10000 nM.
As for `CC(Oc1cc2sc(NC(=O)NCCN3CCCC3)nc2cc1F)c1c(Cl)ccc(Cl)c1Cl` (stereo not drawn) [Example 126, 1-{5-fluoro-6-[1-(2,3,6-trichlorophenyl)ethoxy]-1,3-benzothiazol-2-yl}-3-[2-(pyrrolidin-1-yl)ethyl]urea], the IC50 was less than 100 nM on c-MET, 500 to 10000 nM in the experiment on MKN45 cells (setting [1]) and 500 to 10000 nM on RON.
Turning to `CNCCCNC(=O)Nc1nc2cc(F)c(OC(C)c3c(Cl)ccc(F)c3Cl)cc2s1` (stereo not drawn) [Example 127, 1-{6-[1-(2,6-dichloro-3-fluorophenyl)ethoxy]-5-fluoro-1,3-benzothiazol-2-yl}-3-[3-(methylamino)propyl]urea], the results for the IC50 against c-MET, in the experiment on MKN45 cells (setting [1]) and against RON were less than 100 nM, 500 to 10000 nM and 500 to 10000 nM, respectively.
Take `CC(Oc1cc2sc(NC(=O)NCCCN)nc2cc1F)c1c(Cl)ccc(F)c1Cl` (stereo not drawn) [Example 128, 1-(3-aminopropyl)-3-{6-[1-(2,6-dichloro-3-fluorophenyl)ethoxy]-5-fluoro-1,3-benzothiazol-2-yl}urea]: the half-inhibitory concentration (IC50) against c-MET was less than 100 nM; in the experiment with MKN45 cells (setting [1]) it was 500 to 10000 nM; against RON, 500 to 10000 nM.
`CC(Oc1cc2sc(NC(=O)NCC(=O)N3CCN(C)CC3)nc2cc1F)c1c(Cl)ccc(F)c1Cl` (stereo not drawn) [Example 129, 1-{6-[1-(2,6-dichloro-3-fluorophenyl)ethoxy]-5-fluoro-1,3-benzothiazol-2-yl}-3-[2-(4-methylpiperazin-1-yl)-2-oxoethyl]urea]: the results for the IC50 at c-MET, in the experiment with MKN45 cells (setting [1]) and on RON were less than 100 nM, 500 to 10000 nM and 500 to 10000 nM, respectively.
As for `CC(Oc1cc2sc(NC(=O)NCCN3CCNC(=O)C3)nc2cc1F)c1c(Cl)ccc(F)c1Cl` (stereo not drawn) [Example 130, 1-{6-[1-(2,6-dichloro-3-fluorophenyl)ethoxy]-5-fluoro-1,3-benzothiazol-2-yl}-3-[2-(3-oxopiperazin-1-yl)ethyl]urea], the IC50 against c-MET was less than 100 nM; with MKN45 cells (setting [1]) it was 500 to 10000 nM. Further, the “test B” value on RON is “+=”.
For the molecule “{6-[1-(2,6-dichloro-3-fluorophenyl)ethoxy]-5-fluoro-1,3-benzothiazol-2-yl}2-(pyrrolidin-1-yl)ethyl carbamate [Example 73]”, the IC50 on c-MET is less than 100 nM; in the experiment with MKN45 cells (cellular proliferation by 14C-thymidine pulse), 500 to 10000 nM; against RON, 500 to 10000 nM.

Values taken from patent US8188078B2 (Sanofi-Aventis, priority 2007, dated 2012).
